Results published in US20230197192A1, “SELECTING NEOANTIGENS FOR PERSONALIZED CANCER VACCINE” (AMAZON TECHNOLOGIES, INC., priority 2020, published 2023).
Where no end group is shown, it is not given here.

Experiment: Visible dissolution of peptides in DMSO / 0.9% NaCl for pool formulation
Assay type: physicochemical
Details: for Visual solubility (appearance of the peptide solution): Peptide Synthesis Engineering Run Batch for Sample GGGGG, visual appearance of the peptide solution (Clear / Semi Cloudy / Cloudy); for Solubility: appearance of the solution
Method: Groups of peptides are selected and pooled. Up to four (4) pools with not more than (NMT) five (5) peptides in each pool were prepared. Each peptide was dissolved in 5.538% (v/v) DMSO followed by 0.9% NaCl solution, at a concentration of each peptide at 0.4158 mg/mL. Peptides which were visibly dissolved were accepted for that group's pool. Upon successful pooling of all peptides within a group, the pool was filtered through a 0.2 μm Nylon filter. Peptides were shipped in sterile tubes and labeled with Pool name, lot #, components, manufacturing data, quantity/concentration and storage conditions.

[1] = Peptide synthesis engineering run batch for sample DDDDD_2020
[2] = Peptide synthesis engineering run batch for sample FFFFF

| Sequence | Visual solubility (appearance of the peptide solution) | Solubility [1] | further results |
| --- | --- | --- | --- |
| LQMLCPQEAPQILSRLEAVR [DDDDD.7] |  | Clear |  |
| SAGENPLEEEE [DDDDD.43] |  | Clear |  |
| TPSAPEGYDLKIGLFLAPRRGSLPD [FFFFF.17] |  |  | Solubility [2]: Clear |
| APPTRLAPPQRPPPPS [DDDDD.22] |  | Clear |  |
| PTLPQPASHFSPPPPPPPLPP [FFFFF.5] |  |  | Solubility [2]: Clear |
| LNGSEPTGAYSIKGFFADYEIPN [DDDDD.26] |  | Clear |  |
| TGQDMLAL [FFFFF.36] |  |  | Solubility [2]: Clear |
| RNLYISGFSLCFWLVLRRLVT [FFFFF.26] |  |  | Solubility [2]: Cloudy |
| EAQSRSSPTL [DDDDD.40] |  | Clear |  |
| LLGTVDKHSVKVTNCFSVPHN [DDDDD.16] |  | Clear |  |
| YGRTVVPFLVPGTSQLGQ [FFFFF.9] |  |  | Solubility [2]: Clear |

More lines, main results first:

| Visual solubility (appearance of the peptide solution) | Solubility [1] | Sequence | further results |
| --- | --- | --- | --- |
| Clear |  | PSAPQQEGVASKEKEEV [GGGGG.4] |  |
| Clear |  | SLCQAPPL [GGGGG.48] |  |
| Clear |  | VALSVRPI [GGGGG.37] |  |
| Clear |  | LIKPPAHTSAILTVLR [GGGGG.30] |  |
| Clear |  | APGSSRLA [GGGGG.43] |  |
| Clear |  | VSPDIFMQSHL [GGGGG.40] |  |
